Data on four compounds can be found in US20110217412A1, “CHOLESTEROL LOWERING SUPPLEMENT AND LOW CHOLESTEROL EGG PRODUCED BY USING THE SAME” (JINIS BIOPHARMACEUTICALS CO., priority 2004, published 2011).

Series [1] relates to hens. As to conditions: cited from earlier work.
Series [2] concerns hens. As to conditions: cited from earlier work. The source holds these as a separate data set.
In series [3] the test system is ISA brown hens. The series can be described thus: Egg cholesterol analysis (yolk weight, gas chromatography of yolk cholesterol) of hens fed supplemented diet. The format is in vivo. Conditions: compared to control. How it is done:
(§1) Healthy ISA brown hens, 45-week old, were assigned randomly to each dietary group (control group, 8 birds; experimental group, 6 birds each). Each bird was placed in an individual cage in an environmentally controlled room (25° C., 50% relative humidity, 16L:8D). The hens were allowed for 2 weeks in which to adapt to the feed with no additives and the housing. Control birds were fed a commercial diet based on corn and soybean meal (Table 1), while birds in experimental groups were fed diets supplemented with 0.003 or 0.03% of compactin (Sigma Aldrich Korea) for 6 weeks. Feed and water were provided ad libitum throughout the experiment. Feed consumption, egg production and egg weight were recorded daily. Egg production was expressed as percent hen day production; (100×number of eggs laid)/(number of hens×days).
For egg cholesterol analysis, eggs from each bird were collected and egg yolk was separated, weighed, and sampled for analysis. Lipids from eggs were extracted by the method of Folch et al. (1957). Briefly, one gram of sample was saponified with 3 mL of 33% KOH and incubated with 30 mL of 95% methanol in a 65° C. water bath for 90 min. After saponification, 10 mL hexane and 3 mL water were added, followed by vigorous shaking for 10 min. 5α-cholestan (Sigma C-8300) was used as an internal standard. Cholesterol content was determined by a gas chromatography (Shimadzu, Japan) using column VB-1 (30 m×0.25 mm×0.25 μm, VICI Inc.) with a split ratio of 100:1 and nitrogen as carrier gas for a column flow rate of 0.54 mL/min. Injector, column, and detector temperatures were 275° C., 290° C., and 340° C., respectively. […] The average control yolk weight was 17.2 g. […] Administration of compactin caused the significant reduction in yolk weight, compared to the control with 12.8 mg cholesterol per gram of yolk. When expressed as total yolk cholesterol content, percentage changes compared to that of control were 16% and 29% at 0.003% and 0.03% compactin, respectively.
Streptomyces cell precipitates and cell culture broth after compactin bioconversion were used as cholesterol lowering supplements respectively. First, compactin bioconversion was done as following. Single colony of streptomyces carbophilus was inoculated into 100 ml R2YE in 500 ml erlenmyer flask and incubated at 27° C. at 200 rpm for 3 days. After incubation, 10 ml of seed culture was added to 100 ml of conversion media (glucose 2.0%, corn steep liquor 0.2%, K2HPO4 0.15%, yeast extract 0.1%, MgSO4.7H2O 0.15%, ZnSO47H2O 0.001%, NH4NO3 0.1%, peptone 0.1%, pH 7.0) in 500 ml flask and incubated at 27° C. at 200 rpm for 3 days. Then, filter sterilized compactin salt was added into culture up to 0.1% weight of culture and incubated for another 4 days. After bioconversion reaction, culture media was analyzed by TLC to confirm the presence of compactin and pravastatin. This culture was freeze dried for 24 hours and then used as cholesterol lowering supplements. Also Streptomyces cells were obtained from bioconversion reaction by centrifugation at 3,000×g. Streptomyces cell precipitates recovered as pellets was dried at 60° C. and used as cholesterol lowering supplements. Streptomyces cell precipitates as well as bioconversion reaction broth was dried and used as cholesterol lowering supplements as shown in Example 1. Egg production and cholesterol amount were measured afterward.
(§2) Egg production and yolk cholesterol analysis was performed with the same procedure as described in Example 1 above except 0.5 and 1% of Streptomyces cell precipitates and bioconversion reaction broth were administered instead of compactin. Hen performance was investigated by measuring egg weight and egg production as in Table 6.

Series [4] deals with ISA brown hens. The experiment in a line: Egg laying performance of hens fed supplemented diet (egg weight, egg production). Conditions: for Egg production: 6 weeks. It is filed as in vivo. The protocol:
as §1
The effects of 0.003% or 0.03% compactin on the laying performance of 45-week old ISA brown hens were investigated (Table 2). Egg weight was maintained at more than 60 grams after 6 weeks of oral administrations of compactin at both doses. […] Maintenance of laying performance with compactin feeding is of contrast to the previous art in which atorvastatin reduced egg production down to 70% after feeding for 5-week.
Egg production and yolk cholesterol analysis was performed with 0.003 and 0.03% pravastatin administered group with the same procedure as described in Example 1 above. Hen performance was investigated by measuring egg weight and egg production as in Table 4. Pravastatin group had maintained above 80% of egg production rate after 6-week administration, same as control.
as §2

For series [5] the following is noted: cited from earlier work.
Where [6] appears, read: 0.003 weight % pravastatin in feed.
Setting [7] is: 0.03 weight % pravastatin in feed.

As to `CC[C@H](C)C(=O)O[C@H]1C[C@@H](C)C=C2C=C[C@H](C)[C@H](CC[C@@H]3C[C@@H](O)CC(=O)O3)[C@H]21` [lovastatin], the “Reduction in cholesterol content in eggs” value in the series on hens [1] (dose of 0.03%) is reported as around 3.9%.

For `CC(C)c1c(C(=O)Nc2ccccc2)c(-c2ccccc2)c(-c2ccc(F)cc2)n1CC[C@@H](O)C[C@@H](O)CC(=O)O` [atorvastatin], in the series with hens [2] (2, 3 and 4 weeks after administration, Table 2 of U.S. Pat. No. 6,177,121), the “Reduction of egg production versus control group” value was 20%. The “Egg production reduced down to” value in the series on hens [2] (after feeding for 5-week) is listed as 70%. The “Effect on the cholesterol content in eggs” value in the series on hens [1] (according to U.S. Pat. No. 6,177,121) was “distinctly effective”.

As to `CC[C@H](C)C(=O)O[C@H]1CCC=C2C=C[C@H](C)[C@H](CC[C@@H]3C[C@@H](O)CC(=O)O3)[C@H]21` [Compactin, compactin], the Cholesterol content change with ISA brown hens [3] (0.003 weight % compactin in feed) is −16%; in the series with ISA brown hens [3] (0.003 weight % compactin in feed, listed as compactin) it was -16%; in the series with ISA brown hens [3] (0.03 weight % compactin in feed), −29%; in the series with ISA brown hens [3] (0.03 weight % compactin in feed, listed as compactin) it was -29%. Moreover, the “Difference in egg production compared to the control group” value in the series with ISA brown hens [4] (in vivo) is listed as “did not cause any difference in egg production”. Also, the “Reduction rates in the production of eggs” value in the series on ISA brown hens [4] (in vivo) was “at most 5%”. Besides, the “Toxicity in clinical trials” value in series [5] is given as “serious toxicity”.

Regarding pravastatin, the results for the Cholesterol content change in the series on ISA brown hens [3] (setting [6]) and in the series on ISA brown hens [3] (setting [7]) were −6% and −24%, respectively. In addition, the Egg production is on record as 84% in the series on ISA brown hens [4] (setting [6]) and 82% in the series on ISA brown hens [4] (setting [7]). Besides, the “Egg production rate maintained” value in the series on ISA brown hens [4] (after 6-week administration of pravastatin (0.003 and 0.03%)) is recorded as “above 80%”.
